In US6825230B2, “Spiro and dispiro 1,2,4-trixolane antimalarials” (Medicines for Malaria Venture MMV, priority 2002, dated 2004):
Converted amounts (≈) assume the structure as drawn. Like-named read-outs stand apart in the source and are kept apart here.

Experiments:
[1] = system: ANKA strain of P. berghei; experiment: Single dose STI in vivo screen in infected mice; parameters: species or system Plasmodium berghei; conditions: for Survival (days) 10 mg/kg po: single 10 mg/kg po in 3% ethanol and 7% Tween 80; for Survival (days) 10 mg/kg po / Survival (days) 10 mg/kg SSV po / Survival (days) 10 mg/kg sc: untreated 6-7 days; for Activity (%) 10 mg/kg po: single 10 mg/kg po in 3% ethanol and 7% Tween 80 on day 1 post-infection; for Survival (days) 10 mg/kg SSV po: single 10 mg/kg po in SSV; for Activity (%) 10 mg/kg SSV po: single 10 mg/kg po in standard suspending vehicle (SSV) on day 1 post-infection; for Survival (days) 10 mg/kg sc: single 10 mg/kg sc in 3% ethanol and 7% Tween 80; for Activity (%) 10 mg/kg sc: single 10 mg/kg sc in 3% ethanol and 7% Tween 80 on day 1 post-infection
[2] = system: chloroquine-resistant K1 strain of P. falciparum; experiment: In vitro antimalarial semiautomated microdilution assay ([3H]-hypoxanthine incorporation), K1 strain; type: cell-based, Plasmodium falciparum; conditions: Plasmodium falciparum
How it was run: (§1)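 IC50 values come from Logit regression of [3H]-hypoxanthine uptake data. Parasites were intraerythrocytic P. falciparum forms taken from asynchronous stock cultures and tested by semiautomated microdilution.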

[3] = system: chloroquine-sensitive NF54 strain of P. falciparum; experiment: In vitro antimalarial semiautomated microdilution assay ([3H]-hypoxanthine incorporation), NF54 strain; type: cell-based, Plasmodium falciparum; conditions: Plasmodium falciparum
How it was run: as §1

[4] = percent reduction in parasitemia on day 3
[5] = K1, 72 h, read-out: IC50 (ng/ml) K1, chloroquine-resistant K1 strain, 72 h incubation
[6] = NF54, 72 h, read-out: IC50 (ng/ml) NF54, chloroquine-sensitive NF54 strain, 72 h incubation
[7] = chloroquine-resistant K1 strain, 72 h incubation, read-out: IC50 (ng/ml) K1
[8] = chloroquine-sensitive NF54 strain, 72 h incubation, read-out: IC50 (ng/ml) NF54

SMILES	Survival (days) 10 mg/kg po [1]	Activity (%) 10 mg/kg po [1, 4]	Survival (days) 10 mg/kg SSV po [1]	Activity (%) 10 mg/kg SSV po [1, 4]	Survival (days) 10 mg/kg sc [1]	Activity (%) 10 mg/kg sc [1, 4]	IC50 [2, 5]	IC50 [3, 6]	Survival (days) 3 mg/kg SSV po ([1]; single 3 mg/kg po in SSV)	Activity (%) 3 mg/kg SSV po ([1]; single 3 mg/kg po in SSV, percent reduction in parasitemia on day 3)	IC50 [2, 7]	IC50 [3, 8]
CCCCS(=O)(=O)N1CCC2(CC1)OOC1(O2)C2CC3CC(C2)CC1C3 (stereo not shown) [OZ92, Adamantane-2-spiro-3′-8′-(1′-butanesulfonyl)-1′,2′,4′-trioxa-8′-azaspiro[4.5]decane]	6.7 days	81%	6.3 days	35%	10.0 days	99.98%	1.6 ng/mL (≈ 4.15 nM)	0.4 ng/mL (≈ 1.04 nM)				
NC(=O)CNC(=O)C[C@H]1CC[C@]2(CC1)OO[C@]1(O2)C2CC3CC(C2)CC1C3 [OZ306]			9.2 days				3.9 ng/mL (≈ 10.3 nM)	3.6 ng/mL (≈ 9.51 nM)	8.2 days	87%		
O=C(O)CCC(=O)N[C@H]1CC[C@]2(CC1)OOC1(O2)C2CC3CC(C2)CC1C3 (stereo partly shown) [OZ196]	6.0 days	10%	5.3 days	0%	5.7 days	17%	> 10 ng/mL	> 10 ng/mL				
CCOC(=O)C1(C(=O)OCC)COC2(CCC3(CC2)OOC2(O3)C3CC4CC(C3)CC2C4)OC1 (stereo not shown) [OZ120, Adamantane-2-spiro-3′-11′,11′-bis(ethoxycarbonyl)-1′,2′,4′,9′,13′-pentaoxadispiro[4.2.5.2]pentadecane]	6.0 days	33%	5.7 days	8%	8.0 days	96%					1.2 ng/mL (≈ 2.5 nM)	0.59 ng/mL (≈ 1.23 nM)
O=C1c2ccccc2C(=O)N1CC1(c2ccccc2)CCC2(CC1)OOC1(O2)C2CC3CC(C2)CC1C3 (stereo not shown) [OZ97]	6.7 days	59%	5.3 days	2%	7.0 days	66%	2.2 ng/mL (≈ 4.4 nM)	1.8 ng/mL (≈ 3.6 nM)				
O=C1c2ccccc2C(=O)N1C[C@H]1CC[C@@]2(CC1)OOC1(O2)C2CC3CC(C2)CC1C3 (stereo partly shown) [OZ167]	6.0 days	0%	6.0 days	6%	7.3 days	97%	6.7 ng/mL (≈ 15.8 nM)	> 10 ng/mL				
NCC1(c2ccccc2)CCC2(CC1)OOC1(O2)C2CC3CC(C2)CC1C3 (stereo not shown) [OZ117]	7.0 days	95%	7.7 days	96%	8.7 days	99.94%	2.1 ng/mL (≈ 5.68 nM)	1.2 ng/mL (≈ 3.25 nM)				
CC(C)(C)NC(=O)N1CCC2(CC1)OOC1(O2)C2CC3CC(C2)CC1C3 (stereo not shown) [OZ143, Adamantane-2-spiro-3′-8′-(t-butylaminocarbonyl)-1′,2′,4′-trioxa-8′-azaspiro[4.5]decane]	6.7 days	48%	6.7 days	44%	9.7 days	99.85%	0.98 ng/mL (≈ 2.69 nM)	1.8 ng/mL (≈ 4.94 nM)				
CS(=O)(=O)c1ccc([C@H]2CC[C@]3(CC2)OOC2(O3)C3CC4CC(C3)CC2C4)cc1 (stereo partly shown) [OZ178]	7.3 days	32%	7.3 days	23%	10.0 days	31%	21 ng/mL (≈ 50.2 nM)	27 ng/mL (≈ 64.5 nM)				
O=C(C[C@H]1CC[C@]2(CC1)OOC1(O2)C2CC3CC(C2)CC1C3)Nc1nccs1 (stereo partly shown) [OZ217]	7.0 days	67%	6.0 days	8%	8.0 days	98%					2 ng/mL (≈ 4.94 nM)	2 ng/mL (≈ 4.94 nM)
O=C(O)CCC[C@H]1CC[C@]2(CC1)OOC1(O2)C2CC3CC(C2)CC1C3 (stereo partly shown) [OZ261]	7.0 days	61%	7.0 days	47%	8.0 days	92%					39 ng/mL (≈ 111 nM)	18 ng/mL (≈ 51.4 nM)
COC(=O)c1ccc(C[C@H]2CC[C@]3(CC2)OOC2(O3)C3CC4CC(C3)CC2C4)cc1 (stereo partly shown) [OZ204]	6.0 days	0/0/0%	6.3 days	0/0/0%	6.0 days	0/0/0%	> 10 ng/mL	> 10 ng/mL				
c1c[nH]c([C@H]2CC[C@]3(CC2)OOC2(O3)C3CC4CC(C3)CC2C4)n1 (stereo partly shown) [OZ251]	6.7 days	29%	6.0 days	6%	9.0 days	99.87%					0.6 ng/mL (≈ 1.82 nM)	0.35 ng/mL (≈ 1.06 nM)
O=C(NC[C@H]1CC[C@]2(CC1)OOC1(O2)C2CC3CC(C2)CC1C3)c1ccccc1C(=O)NC[C@H]1CC[C@]2(CC1)OOC1(O2)C2CC3CC(C2)CC1C3 (stereo partly drawn) [OZ230, N,N′-Bis[cis-[adamantane-2-spiro-3′-1′,2′,4′-trioxaspiro[4.5]dec-8′-yl]methyl]-1,2-benzenedicarboxamide]	5.3 days	0/0/0%	5.7 days	0/0/0%	5.7 days	0/0/0%	3.9 ng/mL (≈ 5.44 nM)	3.6 ng/mL (≈ 5.02 nM)				
